# Source: ChEMBL document CHEMBL5126570, “Synthesis, in vitro, in silico and in vivo hypoglycemic and lipid-lowering effects of 4-benzyloxy-5-benzylidene-1,3-thiazolidine-2,4-diones mediated by dual PPAR α/γ modulation” (Bioorg Med Chem Lett, 2022)
# Calls of active or inactive are those of the source. The rule behind the calls is not given here.
# Columns and labels:
# Mus musculus [1] = assay: Antidiabetic activity in nicotinamide and streptozotocin induced hyperglycemic mouse model assessed as reduction in triglyceride level at 100 mg/kg, IG administered as single dose and measured on day 0 (reference value: 92 +/- 10 mg/dl); format: functional
# Mus musculus [2] = assay: Antidiabetic activity in nicotinamide and streptozotocin induced hyperglycemic mouse model assessed as reduction in triglyceride level at 100 mg/kg, IG administered as single dose and measured on day 1 (reference value: 88 +/- 6 mg/dl); format: functional
# Mus musculus [3] = assay: Antidiabetic activity in nicotinamide and streptozotocin induced hyperglycemic mouse model assessed as reduction in triglyceride level at 100 mg/kg, IG administered as single dose and measured on day 3 (reference value: 95 +/- 5 mg/dl); format: functional
# Mus musculus [4] = assay: Antidiabetic activity in nicotinamide and streptozotocin induced hyperglycemic mouse model assessed as reduction in triglyceride level at 100 mg/kg, IG administered as single dose and measured on day 5 (reference value: 93 +/- 10 mg/dl); format: functional
# 3T3-L1 [5] = assay: Cytotoxicity against adipocyte differentiated mouse 3T3-L1 cells at 100 uM by MTT assay; format: toxicity, cell-based; conditions: 3t3-l1, 100 µM
# 3T3-L1 [6] = assay: Upregulation of PPARgamma mRNA expression in adipocyte differentiated mouse 3T3-L1 cells at 10 uM measured after 24 hrs; format: functional, cell-based
# 3T3-L1 [7] = assay: Upregulation of GLUT-4 mRNA expression in adipocyte differentiated mouse 3T3-L1 cells at 10 uM measured after 24 hrs; format: functional, cell-based
# [8] = biological target: T1, Peroxisome proliferator-activated receptor gamma (Homo sapiens) (UniProt P37231); assay: Binding affinity to PPARgamma (unknown origin) assessed as change in binding free energy; conditions: filed as modulator
# T1 sequence (whole entry): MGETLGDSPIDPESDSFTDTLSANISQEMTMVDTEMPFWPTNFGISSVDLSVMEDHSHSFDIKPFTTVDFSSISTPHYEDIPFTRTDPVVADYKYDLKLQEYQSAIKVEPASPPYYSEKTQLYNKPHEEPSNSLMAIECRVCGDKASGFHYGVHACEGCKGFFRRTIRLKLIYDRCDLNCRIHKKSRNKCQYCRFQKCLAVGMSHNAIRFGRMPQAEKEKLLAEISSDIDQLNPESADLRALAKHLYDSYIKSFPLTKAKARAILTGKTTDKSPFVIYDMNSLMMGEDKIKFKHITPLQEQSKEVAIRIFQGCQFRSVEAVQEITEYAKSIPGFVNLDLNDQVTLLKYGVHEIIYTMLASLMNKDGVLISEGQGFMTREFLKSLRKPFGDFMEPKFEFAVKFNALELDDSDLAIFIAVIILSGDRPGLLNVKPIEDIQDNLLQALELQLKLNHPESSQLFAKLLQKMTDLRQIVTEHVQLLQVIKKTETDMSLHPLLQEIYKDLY
# [9] = Lipophilicity, logP of compound; format: physicochemical; conditions: octanol/water
# 3T3-L1 [10] = assay: Upregulation of PPARgamma mRNA expression in adipocyte differentiated mouse 3T3-L1 cells assessed as fold increase in PPARgamma expression at 10 uM measured after 24 hrs; format: functional
# 3T3-L1 [11] = assay: Upregulation of PPARalpha mRNA expression in adipocyte differentiated mouse 3T3-L1 cells assessed as fold increase in PPARalpha expression at 10 uM measured after 24 hrs; format: functional
# Mus musculus [12] = assay: Antidiabetic activity in nicotinamide and streptozotocin induced hyperglycemic mouse model assessed as reduction in blood glucose at 100 mg/kg, IG administered as single dose and measured after 7 hrs; format: functional; set-up: scale not given: the % may be the effect or the level left
deltaG [8],logP [9],Structure (SMILES),Activity (Mus musculus [1]),Activity (Mus musculus [2]),Activity (Mus musculus [3]),Activity (Mus musculus [4]),Activity (3T3-L1 [5]),Activity (3T3-L1 [7]),also measured
,,CC(C)OC(=O)C(C)(C)Oc1ccc(C(=O)c2ccc(Cl)cc2)cc1 [FENOFIBRATE],88 mg/dL,65 mg/dL,62 mg/dL,58 mg/dL,,,
,,COc1cc(/C=C2\SC(=O)NC2=O)ccc1OCc1ccc(Cl)cc1,,,,,Non-Toxic,Active,Activity (3T3-L1 [6]): Active
,,COc1cc(/C=C2\SC(=O)NC2=O)ccc1OCc1ccc(-c2ccccc2C#N)cc1,,,,,Non-Toxic,Active,
-7.84,4.94,N#Cc1ccccc1-c1ccc(COc2ccc(/C=C3\SC(=O)NC3=O)cc2)cc1,,,,,,,
,3,O=C1NC(=O)/C(=C/c2ccc(OCc3ccccc3)cc2)S1,,,,,Non-Toxic,,
-7.72,3.33,Cc1ccc(COc2ccc(/C=C3\SC(O)=NC3=O)cc2)cc1,93 mg/dL,88 mg/dL,74 mg/dL,70 mg/dL,Non-Toxic,Active,fold change (FC) (3T3-L1 [10]): 5; fold change (FC) (3T3-L1 [11]): 2; Activity (Mus musculus [12]): 82%
,,COc1cc(/C=C2\SC(=O)NC2=O)ccc1OCc1ccccc1,,,,,Non-Toxic,Active,
,,COc1cc(/C=C2\SC(=O)NC2=O)ccc1OCc1ccc(C)cc1,,,,,Non-Toxic,,
-7.69,3.53,O=C1NC(=O)/C(=C/c2ccc(OCc3ccc(Cl)cc3)cc2)S1,90 mg/dL,75 mg/dL,77 mg/dL,75 mg/dL,Non-Toxic,Active,fold change (FC) (3T3-L1 [10]): 5; fold change (FC) (3T3-L1 [11]): 2; Activity (Mus musculus [12]): -68%
,,COc1cc(/C=C2\SC(=O)NC2=O)ccc1OCc1ccccc1C#N,,,,,Non-Toxic,,
,,N#Cc1ccccc1COc1ccc(/C=C2\SC(=O)NC2=O)cc1,,,,,Non-Toxic,,Activity (3T3-L1 [6]): Active
-7.43,,O=C1N=C(O)S/C1=C\c1ccc(OCc2ccccc2)cc1,97 mg/dL,70 mg/dL,69 mg/dL,62 mg/dL,,Active,Activity (3T3-L1 [6]): Active; fold change (FC) (3T3-L1 [11]): 2; Activity (Mus musculus [12]): 38%
